Source: a melting point compilation (Tetko et al.; mined from patent text by program, amines drawn as free bases though some values may be those of a salt)

`CC(=O)Nc1ccc(CC(=O)N[C@H]2C[C@H](C(=O)O)Nc3cc(Cl)cc(Cl)c32)cc1` (relative stereo) gave a melting point of 279 to 281 °C.
With `O=C1NCCN1c1ccccc1` the melting point was 154 to 156 °C.
For `NC(=O)c1sc2nc(N3CCC(NCC(O)c4ccccc4F)CC3)cc(C(F)(F)F)c2c1N` (stereo not drawn), the melting point was 192 to 194 °C.
Work on `NC(=O)c1nn(-c2ccc(S(N)(=O)=O)cc2)c2ccncc12` yielded a melting point of 301 to 302 °C.
`CS(=O)(=O)Nc1ccc(C(=O)C2CCN(CCc3cn4ccccc4n3)CC2)cc1` showed a melting point of 190 to 191 °C.
`CCCCCCCCCCCCCCCCCCOc1cc(OCc2ccccc2)cc(C(=O)O)c1` showed a melting point of 97 to 99 °C.
With `Cc1oc2cc(C(CC(=O)O)CC(=O)O)ccc2c1C` the melting point was 190 to 192 °C.
In the case of `COC12CC(CN3CCC(c4c[nH]c5ccccc45)CC3)CN(C)C1Cc1c[nH]c3cccc2c13` (stereo not drawn), the melting point is reported as 222 to 227 °C.
`Cc1cc(C(N)=O)ncc1C(c1c(F)ccc(F)c1F)S(=O)(=O)c1ccc(C(F)(F)F)nc1` (stereo not drawn) showed a melting point of 237 to 238 °C.
Work on `NC(=O)c1c2ccsc2nc2c1c1ccccc1n2Cc1ccccc1` yielded a melting point of 242 to 245 °C.
Molecule `CCc1cc2c(c(CC)n1)c(C)c(C)c(=O)n2Cc1ccc(-c2ccccc2-c2nnn(C(c3ccccc3)(c3ccccc3)c3ccccc3)n2)cc1` has a melting point of 159 to 160 °C.
In the case of `COC(=O)OCc1cnc(C)c(OC(=O)OC)c1`, the melting point is reported as 65 °C.
`O=c1ccn(Cc2ccccc2)c(=O)[nH]1` showed a melting point of 168 to 170 °C.
`O=C1OC(=O)C(c2ccc(C(=O)O)cc2)=C1c1ccccc1` gave a melting point of 247 to 249 °C.
`CN1C2CCC1CC(O)(c1ccc(Cl)c(Cl)c1)C2` (stereo not drawn) gave a melting point of 153 to 154 °C.
In the case of `CC(Sc1nc(N)cc(Cl)n1)c1cc2ccccc2cn1` (stereo not drawn), the melting point is reported as 179 to 180 °C.
`CC1CNC(c2n[nH]c(-c3ccc(Cl)cc3)c2-c2ccncc2)C(C)N1` (stereo not drawn) gave a melting point of 236 to 238 °C.
In the case of `O=[N+]([O-])c1sccc1Nc1ccccc1`, the melting point is reported as 105 °C.
Molecule `COc1cc(CBr)c(OC)cc1Cl` has a melting point of 85 to 88 °C.
For `Cc1oc(-c2ccccc2)nc1CCOc1ccc(CCCBr)cc1`, the melting point was 78 to 79 °C.
`CC(=O)Nc1nc(CCc2ccc(CC#N)cc2)cs1` showed a melting point of 160 to 161 °C.
Molecule `Cc1ncc(CN2CCC(COCc3ccccc3)CC2)c(N)n1` has a melting point of 106 to 108 °C.
For `Nc1ncc(C2CCN(c3ccc(Cl)cc3)CC2)c(N)n1`, the melting point was 254 to 255 °C.
Work on `COC(=O)c1cc(OCCCOc2ccc(-c3ccccc3)cc2)cc(OCCCOc2ccc(-c3ccccc3)cc2)c1` yielded a melting point of 142 to 145 °C.
`Cc1cc(SCc2ccnc3[nH]c(-c4ccc(C(F)(F)F)cc4)nc23)ccc1OCC(=O)O` gave a melting point of 239 to 241 °C.
`O=C(O)CCCCCCCNS(=O)(=O)c1ccc(Cl)cc1` showed a melting point of 122 to 124 °C.
For `CCc1c(-c2ccccc2)c2c(c3c1[nH]c1ccc(O)cc13)C(=O)NC2=O`, the melting point was 190 to 196 °C.
Molecule `COCC(C)Oc1cc(Oc2ccc(S(C)(=O)=O)cc2)cc2cc(C3=NCC(CC(N)=O)S3)[nH]c12` (stereo not drawn) has a melting point of 107 to 112 °C.
With `CC(=O)N(C)Cc1ccc2c(c1)C(Cc1ccnc(F)c1)(Cc1ccnc(F)c1)c1ccccc1-2` the melting point was 136 to 137 °C.
Work on `CC(=O)NCC1CC(c2ccc(N3CCOCC3)c(F)c2)=NO1` (single isomer, unassigned; (-)) yielded a melting point of 179 to 180 °C.
Molecule `COc1ccc(-c2nnc3c4ccccc4c(O)nn23)cc1` has a melting point of 307 to 309 °C.
With `O=C1NCC(COc2ccccc2)O1` (stereo not drawn) the melting point was 108 to 109 °C.
`Cn1cc(C2=C(c3c4n(c5ccccc35)CCC3(CCCC3NC(=O)OC(C)(C)C)C4)C(=O)OC2=O)c2ccccc21` (stereo not drawn) gave a melting point of 123 to 125 °C.
Molecule `CC(=O)Nc1ccc([N+](=O)[O-])cc1OCC(O)CN1C(=O)CCC1=O` (stereo not drawn) has a melting point of 157 °C.
Work on `COC(=O)c1cc(OCc2ccccc2)ccc1O` yielded a melting point of 108 to 112 °C.
For `CCCCC(=O)N(CCCOCc1ccccc1)Cc1ccc(-c2ccccc2-c2nnn[nH]2)cc1`, the melting point was 112 to 115 °C.
With `Clc1cccc(N2CCN(CCCCNc3ccc(-c4ccccc4)cn3)CC2)c1Cl` the melting point was 110 °C.
`O=c1[nH]c2cc(Cl)c(Cl)cc2[n+]([O-])c1-c1ccc(O)cc1` showed a melting point of 276 to 278 °C.
`c1ccc(C(c2ccccc2)N2CCN(CCCn3c(C4CCCCC4)nc4ccccc43)CC2)cc1` gave a melting point of 115 °C.
Work on `CCOC(=O)C1=CC(OC)(C(C)(C)C)N(c2ccc(Cl)cc2Cl)N1` (stereo not drawn) yielded a melting point of 130 to 133 °C.
`CNC1=NN(c2cccc(C(F)(F)F)c2)CC1` gave a melting point of 93.1 °C.
In the case of `C[C@H]1CCCC(C)(C)[C@@H]1C(=O)c1ccc(C#N)c(C(F)(F)F)c1`, the melting point is reported as 81.6 to 82.4 °C.
Molecule `N#CC(C(=O)c1ccc(Cl)cc1)=C1CCC(C(=O)O)N1` (stereo not drawn) has a melting point of 134 to 136 °C.
Work on `COC(=O)NNc1n[nH]c2cc(Cl)ccc12` yielded a melting point of 223 to 224 °C.
Molecule `CCOC(=O)C1=C(C2CC2)Nc2n[nH]cc2C1c1cccc(C#N)c1Br` (stereo not drawn) has a melting point of 168 to 170 °C.
Work on `COc1cc(C=Cc2ccccc2)ccc1O` yielded a melting point of 132 to 134 °C.
With `CCc1ccc(OC(CC)C(=O)OC2CC(O)C=C3C=CC(C)C(CCC4CC(O)CC(=O)O4)C32)cc1` (mixture of isomers) the melting point was 139 to 140 °C.
Molecule `O=c1oc2cccnc2n1CCN1CCN(c2cccc(C(F)(F)F)c2)CC1` has a melting point of 92 to 93 °C.
Molecule `CCCOc1cc(CCCO)n(Cc2ccc(F)cc2F)n1` has a melting point of 66 to 67 °C.
For `O=C1CCC(N2Cc3cc(CNC(=O)Nc4ccc(Cl)c(-c5nc6ccccc6[nH]5)c4)ccc3C2=O)C(=O)N1` (stereo not drawn), the melting point was 275 to 277 °C.
In the case of `COc1ccc(Br)c(C(=O)N2CCN(S(=O)(=O)c3ccc(F)cc3F)CC2)c1`, the melting point is reported as 194 °C.
With `O=C(Nc1ccccc1S(=O)(=O)NCCCn1cccn1)c1cccc(C(F)(F)F)c1` the melting point was 108 to 111 °C.
`CC[C@H]1c2cc(F)ccc2-c2ccccc2N1C(=O)c1ccc(O)cc1` showed a melting point of 103 to 104 °C.
For `O=C(O)C1Cc2c([nH]c3ccccc23)CN1C(=S)SCC=Cc1ccccc1` (stereo not drawn), the melting point was 200 to 202 °C.
`Cc1cc(NC(=O)C(CS)CC(C)C)cc(C(=O)O)c1` (stereo not drawn) showed a melting point of 193 to 195 °C.
Molecule `Cc1c(F)c(F)c(C(N)=O)c(F)c1F` has a melting point of 157 to 158 °C.
For `NC(=O)C(c1ccc(C(=O)O)cc1)C(CCc1ccccc1)c1ccccc1N1CCCCC1` (stereo not drawn), the melting point was 167 to 170 °C.
For `COC(=O)COc1ccc(Cn2c(-c3ccc(C(F)(F)F)cc3)c(C)c3cc(OCc4ccccc4)ccc32)cc1`, the melting point was 221 °C.
With `N#CCC(C(=O)N1C(=O)OCC1c1ccccc1)c1ccccc1F` (stereo not drawn) the melting point was 179 to 181 °C.
With `CC(C)(C)NC(=O)c1ccc(C(F)(F)F)cc1` the melting point was 146 to 148 °C.
For `O=S1(=O)N=C(NC2CC2)Nc2cc(Cl)sc21`, the melting point was 272 to 273 °C.
In the case of `Cc1cc(C[C@@H](NC(=O)c2cccc3c2C=CCCC3)[C@@H](O)c2ccc(F)cc2)cc(OC(F)(F)C(F)F)c1` (racemic), the melting point is reported as 175 to 176 °C.
With `Fc1ccc(Nc2ccccc2C=C(Br)Br)cc1` the melting point was 75 to 77 °C.
Molecule `CC(=O)NCCc1coc2ccc(OCC#N)cc12` has a melting point of 72 to 73 °C.
`CCOc1nc(C(F)(F)F)cc(=O)n1-c1cc(O)c(Br)cc1F` gave a melting point of 160 to 161 °C.
With `CC1N=C(c2ccccc2Cl)c2c(ccc(NC(=O)NC3CCC(O)CC3)c2Br)N(C)C1=O` (stereo not drawn) the melting point was 226 to 227 °C.
Work on `COC(=O)c1[nH]c2cc(C)c(C)cc2c1-c1ccc(O)cc1` yielded a melting point of 247 to 248 °C.
Work on `COC(=O)CN1CC([N+](=O)[O-])=C(Cc2ccc(C(C)(C)C)cc2)C=C1C` yielded a melting point of 135 °C.
`C#Cc1c(Cl)cccc1Cl` showed a melting point of 97 to 98 °C.
`CCCCOCCOc1ccc(-c2ccc3c(c2)C=C(C(=O)Nc2ccc(C(O)c4ccccn4)c(OC)c2)CCN3C(=O)C(F)(F)F)cc1` (stereo not drawn) showed a melting point of 123 to 125 °C.
With `CC1(C)CCC(C)(C)c2cc(C#Cc3ccc(C=O)cc3)ccc21` the melting point was 130 °C.
`C[C@]12CCC(=O)N[C@@H]1CCc1cc(Sc3cccc(Cl)c3)ccc12` gave a melting point of 186 to 187 °C.
Work on `COCOc1cccc(Cn2nc(C(=O)OC)c3c2-c2ccc(OCc4cncnc4)cc2CC3)c1` yielded a melting point of 178 to 180 °C.
`CC(C)c1nn(-c2ccc(C(F)(F)F)cc2)cc1CO` showed a melting point of 84 to 85 °C.
Work on `O=C1c2ccccc2C(=O)c2c1oc1ccc3cc(O)ccc3c21` yielded a melting point of 318 °C.
Work on `CNC(=O)Nc1snc(SC)c1C#N` yielded a melting point of 286 °C.
In the case of `COCc1nc(C=O)c[nH]1`, the melting point is reported as 100 to 103 °C.
For `CCCc1c(OCc2ccc(C(=O)O)c(OCC)c2)ccc(C(C)=O)c1O`, the melting point was 145 to 150 °C.
For `O=C1CCCC(Cl)=C1C(=O)c1ccc(Cl)c(OCCn2cnnn2)c1Cl`, the melting point was 122 to 124 °C.
Molecule `Cc1c(C2CCN(Cc3ccc(Cl)cc3)CC2)n[nH]c1-c1ccccc1` has a melting point of 192 to 193 °C.
For `NC(=O)c1cc(C(=O)O)c(O)c2ncc(Cc3ccc(F)cc3)cc12`, the melting point was 265 to 266 °C.
For `CC(C)(CO)[C@@H](O)C#N`, the melting point was 110 °C.
With `COc1ccc2c3c1OC1C(O)C(C)(C)C(C)C4C(C2)N(C)CCC314` (stereo not drawn) the melting point was 110 to 112 °C.
Work on `CCCn1nc2c(N)nc3ccccc3c2c1CCCc1cc(-c2ccccc2)on1` yielded a melting point of 172 to 173 °C.
`COC(=O)c1ccc(OCCNC(=O)C2Cc3ccccc3N2S(=O)(=O)c2ccc(-c3ccc(F)cc3F)cc2)cc1F` (stereo not drawn) showed a melting point of 65 to 68 °C.
With `CCOc1cc2ncc(C#N)c(Nc3ccc(F)c(Cl)c3)c2cc1NC(=O)C=CCN(C)C` the melting point was 196 to 198 °C.
For `CC1(C)CC(NC(=O)c2cc(N)cc(N)c2)CC(C)(C)N1`, the melting point was 188 to 190 °C.
In the case of `CSCCOc1c(-c2ccc(S(C)(=O)=O)cc2)cnn(CC(F)(F)F)c1=O`, the melting point is reported as 103 to 105 °C.
`C=CCOc1cc(NC(C)=O)c(Cl)cc1C(=O)OC` gave a melting point of 110 to 112 °C.
`Cc1c(C)c2c(c(C)c1NC=O)CC(C)(CO)O2` (stereo not drawn) gave a melting point of 149 to 150 °C.
For `COC(=O)C1OC(CC(C)C)(c2ccc(Cl)cc2)OC1C(=O)OC` (stereo not drawn), the melting point was 40 °C.
`NC(=O)c1ccc(C(O)c2c(O)c(=O)ccn2CCO)cc1` (stereo not drawn) showed a melting point of 215 to 216 °C.
`CCOCC(=O)Nc1ncc(Cc2cc(OC)c(OC)c(OC)c2)c(N)n1` gave a melting point of 175 to 176 °C.
Work on `CC(=O)OCC(CCn1cnc2c(Cl)nc(N)nc21)COC(C)=O` yielded a melting point of 135 to 137 °C.
`O=C1c2c(Cl)cccc2-n2cnc(-c3nnco3)c2[C@@H]2CCCN12` showed a melting point of 229 to 230 °C.
For `CCOC(=O)c1cc(C)c2nc(CC)[nH]c2n1`, the melting point was 151 to 153 °C.
Work on `C=CCc1[nH]cc(C#N)c1-c1ccc(Cl)cc1C(=O)c1ccccc1F` yielded a melting point of 142 to 144 °C.
`CC(=O)N(C#N)C/C=C\CN(C#N)C(C)=O` gave a melting point of 73.8 to 75.2 °C.
